Source: patent US8889840B2, “Vascular leakage inhibitor” (Industry-Academic Cooperation Foundation, Yonsei University, priority 2009, dated 2014)

How the values were obtained:
occludin = assay: Occludin western blotting of HREC lysate; type: cell-based, human; details: HRECs, pretreatment 60 minutes, then 20 ng/mL VEGF 1 hour
Protocol: In FIG. 8b, confluent HRECs were pretreated with Sac0601 (10 μg/mL) for 60 minutes before treating with 20 ng/mL VEGF (1 hr). Then, cell lysate was subjected to western blotting using anti-occludin antibody.
Confluent HRECs were treated with 10 μg/mL Sac0601 (FIG. 8a, panel A) or Sac0504 (FIG. 8a, panel B) for 1 hour and then with 20 ng/mL. VEGF for 1 hour. Subsequently, the cells were fixed at room temperature for 20 minutes with 4% paraformaldehyde and permeabilized with 0:1% Triton X-100/PBS. Then, the cells were incubated in PBS blocking solution containing 5% normal goat serum and 0.05% Tween-20. The cells were then reacted with anti-occludin antibody (Zymed Laboratories Inc.). The result was visualized with fluorescein-conjugated anti-mouse antibody (Vector Lab.). Also, western blotting was conducted for the cell lysate. The cell lysate was fractionated with SDS-PAGE and then transferred to polyvinyl difluoride membrane. The blocked membrane was reacted with anti-occludin antibody (Zymed Laboratories Inc.) and the immune response band was visualized with the chemiluminescence reagent obtained from Amersham Biosciences, Inc.

C57/BL6 mouse = assay: Vascular leakage induced by VEGF in mouse retina, FITC-dextran; type: in vivo; details: VEGF 50 ng and compound 10 μg into the vitreous body, 24 hours
Protocol: VEGF (50 ng) and Sac0601 (10 μg) were injected into the vitreous body of C57/BL6 mouse. An excipient (DMSO) was injected into the other eye. 24 hours after the injection, 100 μL FITC-dextran (30 mg/mL in PBS, Sigma) was injected into the left ventricle. After waiting for about 2 minutes for circulation of the tracer, the eyes were taken out and fixed immediately in 4% PFA, Then, the retina was taken out and observed under an optical microscope.

Q: Which “occludin (western blotting)” value (occludin) does the source give for `CC(=O)OCC1OC(OC2CCC3(C)C(=CCC4C3CCC3(C)C(C(C)CCCC(C)C)CCC43)C2)C=CC1OC(C)=O` (centres unmarked) [Sac0601] here?
A: The value was “results in decrease of occludin”.

Q: And the “vascular leakage induced by VEGF” value (C57/BL6 mouse)?
A: Its value is “greatly decreases”.
